Measurements published in patent US20230085307A1, “PYRIDAZINONE COMPOUND AND HERBICIDE” (NISSAN CHEMICAL CORPORATION, priority 2019, published 2023).

Assays:
Japanese bulrush = assay: Test Example 1: herbicidal activity, application before weed generation under submerged conditions (Table 16, symbol B); assay type: in vivo, Japanese bulrush (Schoenoplectus juncoides); conditions: 320 g/ha applied herbicide
Outline: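 Submerged Wagner pots (alluvial soil, 4 cm water) sown with weed seeds and planted with 2.5-leaf rice seedlings; emulsifiable concentrate diluted in water applied to water surface on sowing day. Held in greenhouse at 25-30 °C; injury scored 0-5 by herbicidal rate after three weeks.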

late watergrass = assay: Test Example 2: herbicidal activity, application during weed generation under submerged conditions (Table 17, symbol A); assay type: in vivo, late watergrass (Echinochloa oryzicola); conditions: AAH 320 g/ha; application during weed generation, submerged conditions
Outline: (§1)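 Wagner pot, alluvial soil, 4 cm flood; mixed sowing of all species; greenhouse 25° C.–30° C. Emulsifiable formulation, water-diluted to predetermined dose, applied to paddy water at 1–2 leaf stage. Effect rated at 3 wk using the earlier test's scoring criteria.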

oval-leafed pondweed = assay: Test Example 2: herbicidal activity, application during weed generation under submerged conditions (Table 17, symbol C); assay type: in vivo, oval-leafed pondweed (Monochoria vaginalis); conditions: AAH 320 g/ha; application during weed generation, submerged conditions
Outline: as §1

Chinese sprangletop = assay: Test Example 3: herbicidal effect by foliage application, Wagner pot (Table 18, symbol D); assay type: in vivo, chinese sprangletop (Leptochloa chinensis); conditions: 320 g/ha
Outline: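 Plants were sown in alluvial soil held under 0.1–0.5 cm standing water and grown 14 days in a greenhouse at 25–30 °C. An emulsifiable formulation, water-diluted to the set dose, was then sprayed onto the foliage, and effects were scored three weeks later using previously defined criteria.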

southern crabgrass = assay: Test Example 4: herbicidal effect by soil treatment (Table 19, symbol F); assay type: in vivo, southern crabgrass (Digitaria ciliaris)
Outline: (§2)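 Emulsion of test compound, water-diluted to predetermined amount, sprayed on soil after sowing (seed depth ~1.5 cm, sterilized diluvial soil). Greenhouse, 25–30° C. Effect graded at three weeks post-spray.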

wild oat [1] = assay: Test Example 4: herbicidal effect by soil treatment (Table 19, symbol I); assay type: in vivo, wild oat (Avena fatua)
Outline: as §2

blackgrass = assay: Test Example 4: herbicidal effect by soil treatment (Table 19, symbol J); assay type: in vivo, blackgrass (Alopecurus myosuroides)
Outline: as §2

Italian ryegrass = assay: Test Example 4: herbicidal effect by soil treatment (Table 19, symbol K); assay type: in vivo, Italian ryegrass (Lolium multiflorum)
Outline: as §2

windgrass [2] = assay: Test Example 4: herbicidal effect by soil treatment (Table 19, symbol L); assay type: in vivo, windgrass (Apera spica-venti)
Outline: as §2

lambsquarters [3] = assay: Test Example 4: herbicidal effect by soil treatment (Table 19, symbol O); assay type: in vivo, lambsquarters (Chenopodium album)
Outline: as §2

persian speedwell [4] = assay: Test Example 4: herbicidal effect by soil treatment (Table 19, symbol R); assay type: in vivo, Persian speedwell (Veronica persica)
Outline: as §2

barnyard grass = assay: Test Example 5: herbicidal effect by foliage application, plastic box (Table 20, symbol H); assay type: in vivo, barnyard grass (Echinochloa crus-galli); conditions: foliage application
Outline: (§3)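 Post-emergence foliar test in sterilized diluvial soil. Compound applied as water-diluted emulsion at a predetermined rate to 14-day-old plants; evaluation at three weeks.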

wild oat [5] = assay: Test Example 5: herbicidal effect by foliage application, plastic box (Table 20, symbol I); assay type: in vivo, wild oat (Avena fatua); conditions: foliage application
Outline: as §3

windgrass [6] = assay: Test Example 5: herbicidal effect by foliage application, plastic box (Table 20, symbol L); assay type: in vivo, windgrass (Apera spica-venti); conditions: foliage application
Outline: as §3

velvetleaf = assay: Test Example 5: herbicidal effect by foliage application, plastic box (Table 20, symbol M); assay type: in vivo, velvetleaf (Abutilon theophrasti); conditions: foliage application
Outline: as §3

lambsquarters [7] = assay: Test Example 5: herbicidal effect by foliage application, plastic box (Table 20, symbol O); assay type: in vivo, lambsquarters (Chenopodium album); conditions: foliage application
Outline: as §3

persian speedwell [8] = assay: Test Example 5: herbicidal effect by foliage application, plastic box (Table 20, symbol R); assay type: in vivo, Persian speedwell (Veronica persica); conditions: foliage application
Outline: as §3

[9] = amount of applied herbicide 320 g/ha
[10] = 320 g/ha, three weeks after application
[11] = 320 g/ha, evaluated three weeks after application
[12] = AAH 320 g/ha, three weeks after application
[13] = 320 g/ha, 3 weeks after application

Structure (SMILES) | Herbicidal effect on B: Japanese bulrush (grade 0-5) (Japanese bulrush) | herbicidal effect rating, A: late watergrass (late watergrass) | herbicidal effect rating, C: oval-leafed pondweed (oval-leafed pondweed) | herbicidal effect on D (Chinese sprangletop), rating 0-5 (Chinese sprangletop) | herbicidal effect rating, F: southern crabgrass (southern crabgrass; [9]) | herbicidal effect rating, I: wild oat (wild oat [1]; [9]) | herbicidal effect rating, J: blackgrass (blackgrass; [9]) | herbicidal effect rating, K: Italian ryegrass (Italian ryegrass; [9]) | herbicidal effect rating, L: windgrass (windgrass [2]; [9]) | herbicidal effect rating, O: lambsquarters (lambsquarters [3]; [9]) | herbicidal effect rating, R: persian speedwell (persian speedwell [4]; [9]) | herbicidal effect grade, H: barnyard grass (barnyard grass; [10]) | herbicidal effect grade, I: wild oat (wild oat [5]; [10]) | herbicidal effect grade, L: windgrass (windgrass [6]; [10]) | herbicidal effect grade, M: velvetleaf (velvetleaf; [10]) | herbicidal effect grade, O: lambsquarters (lambsquarters [7]; [10]) | herbicidal effect grade, R: persian speedwell (persian speedwell [8]; [10]) | herbicidal effect rating, F: southern crabgrass (southern crabgrass; 320 g/ha) | herbicidal effect rating, I: wild oat (wild oat [1]; 320 g/ha) | herbicidal effect rating, J: blackgrass (blackgrass; 320 g/ha) | other results
CCCC(=O)Oc1c(C)nn(C)c(=O)c1-c1c(-c2ccc(OC(C)C)cc2)sc2ccccc12 [1-021] | 5 (Herbicidal rate of 90% or more (almost completely withered)) | 2 (Herbicidal rate of 20% or more and less than 40%) | 0 (Herbicidal rate of 5% or less (almost no effect)) | 1 (Herbicidal rate of 5% or more and less than 20%) | 0 (Herbicidal rate of 5% or less (almost no effect)) | 0 (Herbicidal rate of 5% or less (almost no effect)) | 0 (Herbicidal rate of 5% or less (almost no effect)) | 1 (Herbicidal rate of 5% or more and less than 20%) | 0 (Herbicidal rate of 5% or less (almost no effect)) | 0 (Herbicidal rate of 5% or less (almost no effect)) | 5 (Herbicidal rate of 90% or more (almost completely withered)) | 4 (Herbicidal rate of 70% or more and less than 90%) | 0 (Herbicidal rate of 5% or less (almost no effect)) | 0 (Herbicidal rate of 5% or less (almost no effect)) | 3 (Herbicidal rate of 40% or more and less than 70%) | 1 (Herbicidal rate of 5% or more and less than 20%) | 5 (Herbicidal rate of 90% or more (almost completely withered)) | – | – | – | –
CCCC(=O)Oc1c(C)nn(C)c(=O)c1-c1c(-c2ccc3c(c2)OCO3)sc2ccc(F)cc12 [2-091] | 4 (Herbicidal rate of 70% or more and less than 90%) | 0 (Herbicidal rate of 5% or less (almost no effect)) | 4 (Herbicidal rate of 70% or more and less than 90%) | 3 (Herbicidal rate of 40% or more and less than 70%) | – | – | – | – | – | – | – | – | – | – | – | – | – | 2 (Herbicidal rate of 20% or more and less than 40%) | 0 (Herbicidal rate of 5% or less (almost no effect)) | 0 (Herbicidal rate of 5% or less (almost no effect)) | herbicidal effect rating, K: Italian ryegrass (Italian ryegrass; 320 g/ha): 3 (Herbicidal rate of 40% or more and less than 70%); herbicidal effect rating, L: windgrass (windgrass [2]; 320 g/ha): 0 (Herbicidal rate of 5% or less (almost no effect)); herbicidal effect rating, O: lambsquarters (lambsquarters [3]; 320 g/ha): 5 (Herbicidal rate of 90% or more (almost completely withered)); herbicidal effect rating, R: persian speedwell (persian speedwell [4]; 320 g/ha): 4 (Herbicidal rate of 70% or more and less than 90%); herbicidal effect on H: barnyard grass (barnyard grass; [11]): 3 (Herbicidal rate of 40% or more and less than 70%); herbicidal effect on I: wild oat (wild oat [5]; [11]): 0 (Herbicidal rate of 5% or less (almost no effect)); herbicidal effect on L: windgrass (windgrass [6]; [11]): 0 (Herbicidal rate of 5% or less (almost no effect)); herbicidal effect on M: velvetleaf (velvetleaf; [11]): 5 (Herbicidal rate of 90% or more (almost completely withered)); herbicidal effect on O: lambsquarters (lambsquarters [7]; [11]): 5 (Herbicidal rate of 90% or more (almost completely withered)); herbicidal effect on R: persian speedwell (persian speedwell [8]; [11]): 5 (Herbicidal rate of 90% or more (almost completely withered))
CCCC(=O)Oc1c(C)nn(C)c(=O)c1-c1c(-c2ccc(C(F)(F)F)cc2)sc2ccccc12 [1-130] | 3 (Herbicidal rate of 40% or more and less than 70%) | 2 (Herbicidal rate of 20% or more and less than 40%) | 0 (Herbicidal rate of 5% or less (almost no effect)) | 3 (Herbicidal rate of 40% or more and less than 70%) | – | – | – | – | – | – | – | – | – | – | – | – | – | – | – | – | F: southern crabgrass, herbicidal effect rating (southern crabgrass; AAH 320 g/ha): 1 (Herbicidal rate of 5% or more and less than 20%); I: wild oat, herbicidal effect rating (wild oat [1]; AAH 320 g/ha): 0 (Herbicidal rate of 5% or less (almost no effect)); J: blackgrass, herbicidal effect rating (blackgrass; AAH 320 g/ha): 0 (Herbicidal rate of 5% or less (almost no effect)); K: Italian ryegrass, herbicidal effect rating (Italian ryegrass; AAH 320 g/ha): 4 (Herbicidal rate of 70% or more and less than 90%); L: windgrass, herbicidal effect rating (windgrass [2]; AAH 320 g/ha): 0 (Herbicidal rate of 5% or less (almost no effect)); O: lambsquarters, herbicidal effect rating (lambsquarters [3]; AAH 320 g/ha): 4 (Herbicidal rate of 70% or more and less than 90%); R: persian speedwell, herbicidal effect rating (persian speedwell [4]; AAH 320 g/ha): 3 (Herbicidal rate of 40% or more and less than 70%); H: barnyard grass, herbicidal effect (barnyard grass; [12]): 0 (Herbicidal rate of 5% or less (almost no effect)); I: wild oat, herbicidal effect (wild oat [5]; [12]): 0 (Herbicidal rate of 5% or less (almost no effect)); L: windgrass, herbicidal effect (windgrass [6]; [12]): 3 (Herbicidal rate of 40% or more and less than 70%); M: velvetleaf, herbicidal effect (velvetleaf; [12]): 5 (Herbicidal rate of 90% or more (almost completely withered)); O: lambsquarters, herbicidal effect (lambsquarters [7]; [12]): 4 (Herbicidal rate of 70% or more and less than 90%); R: persian speedwell, herbicidal effect (persian speedwell [8]; [12]): 5 (Herbicidal rate of 90% or more (almost completely withered))
CCCCOc1ccc(-c2sc3ccccc3c2-c2c(OC(=O)CCC)c(C)nn(C)c2=O)cc1 [1-025] | 5 (Herbicidal rate of 90% or more (almost completely withered)) | 0 (Herbicidal rate of 5% or less (almost no effect)) | 3 (Herbicidal rate of 40% or more and less than 70%) | 4 (Herbicidal rate of 70% or more and less than 90%) | 0 (Herbicidal rate of 5% or less (almost no effect)) | 0 (Herbicidal rate of 5% or less (almost no effect)) | 0 (Herbicidal rate of 5% or less (almost no effect)) | 0 (Herbicidal rate of 5% or less (almost no effect)) | 0 (Herbicidal rate of 5% or less (almost no effect)) | 2 (Herbicidal rate of 20% or more and less than 40%) | 3 (Herbicidal rate of 40% or more and less than 70%) | 4 (Herbicidal rate of 70% or more and less than 90%) | 0 (Herbicidal rate of 5% or less (almost no effect)) | 0 (Herbicidal rate of 5% or less (almost no effect)) | 5 (Herbicidal rate of 90% or more (almost completely withered)) | 4 (Herbicidal rate of 70% or more and less than 90%) | 5 (Herbicidal rate of 90% or more (almost completely withered)) | – | – | – | –
CCCC(=O)Oc1c(C)nn(C)c(=O)c1-c1c(-c2ccc(OCC)cc2)sc2ccc(F)cc12 [2-031] | 4 (Herbicidal rate of 70% or more and less than 90%) | 4 (Herbicidal rate of 70% or more and less than 90%) | 3 (Herbicidal rate of 40% or more and less than 70%) | 4 (Herbicidal rate of 70% or more and less than 90%) | – | – | – | – | – | – | – | – | – | – | – | – | – | 1 (Herbicidal rate of 5% or more and less than 20%) | 0 (Herbicidal rate of 5% or less (almost no effect)) | 0 (Herbicidal rate of 5% or less (almost no effect)) | herbicidal effect rating, K: Italian ryegrass (Italian ryegrass; 320 g/ha): 0 (Herbicidal rate of 5% or less (almost no effect)); herbicidal effect rating, L: windgrass (windgrass [2]; 320 g/ha): 0 (Herbicidal rate of 5% or less (almost no effect)); herbicidal effect rating, O: lambsquarters (lambsquarters [3]; 320 g/ha): 4 (Herbicidal rate of 70% or more and less than 90%); herbicidal effect rating, R: persian speedwell (persian speedwell [4]; 320 g/ha): 4 (Herbicidal rate of 70% or more and less than 90%); effect on barnyard grass (H) (barnyard grass; [13]): 4 (Herbicidal rate of 70% or more and less than 90%); effect on wild oat (I) (wild oat [5]; [13]): 0 (Herbicidal rate of 5% or less (almost no effect)); effect on windgrass (L) (windgrass [6]; [13]): 0 (Herbicidal rate of 5% or less (almost no effect)); effect on velvetleaf (M) (velvetleaf; [13]): 5 (Herbicidal rate of 90% or more (almost completely withered)); effect on lambsquarters (O) (lambsquarters [7]; [13]): 5 (Herbicidal rate of 90% or more (almost completely withered)); effect on persian speedwell (R) (persian speedwell [8]; [13]): 5 (Herbicidal rate of 90% or more (almost completely withered))
